The text below walks through data of publication PMC8745314, “Novel Tetrazole-Based Antimicrobial Agents Targeting Clinical Bacteria Strains: Exploring the Inhibition of Staphylococcus aureus DNA Topoisomerase IV and Gyrase” (International Journal of Molecular Sciences, 2021).

In assay [1] the test system is standard bacteria strains. Briefly: MIC ranges over the panel of standard strains. In kind it is cell-based. Here is the method: All synthesized compounds were tested in vitro against a set of bacteria, including representative standard Gram-positive and Gram-negative rods. Compounds were screened for their minimal inhibitory concentrations (MICs). […] These three compounds were also found to be good inhibitors of the growth of Gram-negative rods: […] The antimicrobial assays were conducted using reference strains of bacteria derived from international microbe collections: American Type Culture Collection (ATCC) and National Collection of Type Culture (NCTC). The following standard strains of bacteria were used: Gram-positive-Staphylococcus aureus NCTC 4163, Staphylococcus aureus ATCC 25923, Staphylococcus aureus ATCC 6538, Staphylococcus aureus ATCC 29213, Staphylococcus epidermidis ATCC 12228, Staphylococcus epidermidis ATCC 35984, Gram-negative: Escherichia coli ATCC 25922, Pseudomonas aeruginosa ATCC 15442. Clinical strains of bacteria used in this study: Gram-positive: Staphylococcus epidermidis 5253, Staphylococcus epidermidis 4243, Staphylococcus aureus […], Staphylococcus aureus […] and Gram-negative: Escherichia coli 520, Escherichia coli 600, Klebsiella pneumoniae 510 and Pseudomonas aeruginosa 659 were obtained from the collection of the Department of Pharmaceutical Microbiology, Medical University of Warsaw, Poland and they were isolated from different biological materials taken from the patients hospitalized in the Warsaw Medical University hospitals. Antimicrobial activity was examined by the minimal inhibitory concentration (MIC) method under standard procedures provided by CLSI with some modifications. MIC was determined by the two-fold serial broth microdilution method in 96-well microtitration plates using Mueller-Hinton II broth medium (Becton Dickinson, Franklin Lakes, NJ, USA). The final inoculum of all studied bacteria was 10^6 CFU/mL (colony forming unit per milliliter). The stock solution of tested compounds was prepared in dimethyl sulfoxide (DMSO) and diluted to a maximum of 1% of solvent content with a sterile medium.

Assay [2] concerns standard and clinical Gram-positive and Gram-negative bacterial strains. Briefly: MIC range over standard and clinical strains (abstract). In kind it is cell-based. How it is done:
Eleven novel imide-tetrazoles were synthesized. In the initial stage of research, in silico structure-based pharmacological prediction was conducted. All compounds were screened for antimicrobial activity using standard and clinical strains. Within the studied group, compounds 1–3 were recognized as leading structures with the most promising results in antimicrobial studies. […] Additionally, all three inhibited the growth of all clinical Staphylococci panels: Staphylococcus aureus (T5592; T5591) and Staphylococcus epidermidis (5253; 4243) with MIC values of 0.8 μg/mL. Selected compounds were examined in topoisomerase IV decatenation assay and DNA gyrase supercoiling assay, followed by suitable molecular docking studies to explore the possible binding modes. […] The compounds 1–3 proposed here provide a promising basis for further exploration towards novel antimicrobial drug candidates.
The antimicrobial assays were conducted using reference strains of bacteria derived from international microbe collections: American Type Culture Collection (ATCC) and National Collection of Type Culture (NCTC). The following standard strains of bacteria were used: Gram-positive—Staphylococcus aureus NCTC 4163, Staphylococcus aureus ATCC 25923, Staphylococcus aureus ATCC 6538, Staphylococcus aureus ATCC 29213, Staphylococcus epidermidis ATCC 12228, Staphylococcus epidermidis ATCC 35984, Gram-negative: Escherichia coli ATCC 25922, Pseudomonas aeruginosa ATCC 15442. […] MIC was determined by the two-fold serial broth microdilution method in 96-well microtitration plates using Mueller–Hinton II broth medium (Becton Dickinson, Franklin Lakes, NJ, USA). […]

Where [3] appears, read: Gram-negative rods: E. coli and P. aeruginosa (standard strains).
Setting [4] is: against standard Gram-positive Staphylococci.

Turning to `CC1=C(C)C2(C)CC1(C)C1C(=O)N(Nc3nnnn3-c3ccccc3Br)C(=O)C12` (stereo not drawn) [Compound 3, 2-((1-(2-Bromophenyl)-1H-tetrazol-5-yl)amino)-4,5,6,7-tetramethyl-3a,4,7,7a-tetrahydro-1H-4,7-methanoisoindole-1,3(2H)-dione], the “MIC values, range” value in assay [1] (setting [3]) was in the range of 0.4 to 25.6 µg/mL; in assay [1] (setting [4]) it was 0.1 to 3.2 µg/mL; in assay [2] it was 0.8 to 3.2 µg/mL.

In the case of `CC1=C(C)C2(C)CC1(C)C1C(=O)N(Nc3nnnn3-c3cccc(C(F)(F)F)c3)C(=O)C12` (stereo not drawn) [Compound 1, 4,5,6,7-Tetramethyl-2-((1-(3-(trifluoromethyl)phenyl)-1H-tetrazol-5-yl)amino)-3a,4,7,7a-tetrahydro-1H-4,7-methanoisoindole-1,3(2H)-dione], the “MIC values, range” value in assay [1] (setting [3]) lay in the range of 0.4 to 25.6 µg/mL; in assay [1] (setting [4]) it was 0.1 to 3.2 µg/mL; in assay [2], 0.8 to 3.2 µg/mL.

In the case of `CC1=C(C)C2(C)CC1(C)C1C(=O)N(Nc3nnnn3-c3ccccc3Cl)C(=O)C12` (stereo not drawn) [Compound 2, 2-((1-(2-Chlorophenyl)-1H-tetrazol-5-yl)amino)-4,5,6,7-tetramethyl-3a,4,7,7a-tetrahydro-1H-4,7-methanoisoindole-1,3(2H)-dione], the “MIC values, range” value lay in the range of 0.4 to 25.6 µg/mL in assay [1] (setting [3]), 0.1 to 3.2 µg/mL in assay [1] (setting [4]) and 0.8 to 3.2 µg/mL in assay [2].
